This is an account of results in PMC6934184, “Selective DNA-PKcs inhibition extends the therapeutic index of localized radiotherapy and chemotherapy” (The Journal of Clinical Investigation, 2019).

The experiment has as its target T1, EPHA1 (Homo sapiens, UniProt P21709).
T1 construct: purchased Thermo Fisher Scientific (Life Technologies) SelectScreen
The experiment can be described thus: SelectScreen Z'LYTE. It counts as biochemical. Summed up: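 Percent values come from Thermo SelectScreen profiling of NU5455, combining activity and binding assays. CSF1R was run in Z'LYTE format at Km app ATP, and CAMK1 in Adapta format with ATP listed at 10.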

T1 sequence (P21709 26-976): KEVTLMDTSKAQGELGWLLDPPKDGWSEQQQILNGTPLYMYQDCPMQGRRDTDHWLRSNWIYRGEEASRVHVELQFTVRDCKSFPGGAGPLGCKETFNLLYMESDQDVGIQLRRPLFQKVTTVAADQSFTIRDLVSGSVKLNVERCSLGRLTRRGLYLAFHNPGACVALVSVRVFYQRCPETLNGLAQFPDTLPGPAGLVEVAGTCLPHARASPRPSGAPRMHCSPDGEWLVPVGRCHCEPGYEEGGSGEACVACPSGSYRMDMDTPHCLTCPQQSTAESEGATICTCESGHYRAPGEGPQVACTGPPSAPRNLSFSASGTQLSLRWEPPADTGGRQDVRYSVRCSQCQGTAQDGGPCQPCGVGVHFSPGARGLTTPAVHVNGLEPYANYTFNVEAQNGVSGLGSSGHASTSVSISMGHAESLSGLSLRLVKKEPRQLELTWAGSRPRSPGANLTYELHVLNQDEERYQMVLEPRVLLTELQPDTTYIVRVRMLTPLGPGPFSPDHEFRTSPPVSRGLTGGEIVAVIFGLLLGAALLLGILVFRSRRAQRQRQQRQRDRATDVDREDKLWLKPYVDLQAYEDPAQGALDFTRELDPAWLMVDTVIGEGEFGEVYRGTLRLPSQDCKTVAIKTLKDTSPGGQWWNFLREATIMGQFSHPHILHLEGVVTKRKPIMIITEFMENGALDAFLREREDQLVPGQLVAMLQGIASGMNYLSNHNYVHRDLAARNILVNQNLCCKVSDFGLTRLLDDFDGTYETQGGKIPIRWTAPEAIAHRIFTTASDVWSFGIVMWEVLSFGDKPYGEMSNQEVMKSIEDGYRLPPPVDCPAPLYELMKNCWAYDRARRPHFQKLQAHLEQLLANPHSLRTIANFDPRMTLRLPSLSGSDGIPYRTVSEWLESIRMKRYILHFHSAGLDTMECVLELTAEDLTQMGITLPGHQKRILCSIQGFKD

As usually defined, the inhibition is how much of the control response was suppressed. `CN(C(=O)CN1CCOCC1)c1ccc2sc3c(-c4cccc5c(=O)cc(N6CC7CCC(C6)O7)oc45)cccc3c2c1` [NU5455]: the inhibition at 1 µM was found to be 2.7%.
